{"source": "paper PMC2755957", "about": "(The Journal of Biological Chemistry, 2009)", "key": {"[1]": {"target": "T1, mouse Δ1–24-L-PGDS (lipocalin type prostaglandin D synthase) (Mus musculus, UniProt O09114, S45A/S81A/T67A)", "T1 sequence (O09114 25-189 S45A/T67A/S81A)": "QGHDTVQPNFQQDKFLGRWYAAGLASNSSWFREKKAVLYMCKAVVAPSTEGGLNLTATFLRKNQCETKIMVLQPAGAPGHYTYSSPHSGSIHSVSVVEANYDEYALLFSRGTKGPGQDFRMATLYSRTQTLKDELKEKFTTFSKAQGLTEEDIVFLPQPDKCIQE", "assay": "surface plasmon resonance", "type": "binding"}, "[2]": {"target": "T2, mouse Δ1–24-L-PGDS (lipocalin type prostaglandin D synthase) (Mus musculus, UniProt O09114, H111A/W54A)", "T2 sequence (O09114 25-189 W54A/H111A)": "T1 sequence (O09114 25-189 S45A/T67A/S81A) with A21S, W30A, A43T, A57S, H87A", "assay": "surface plasmon resonance", "type": "binding"}, "[3]": {"target": "T3, mouse Δ1–24-L-PGDS (lipocalin type prostaglandin D synthase) (Mus musculus, UniProt O09114, S45A)", "T3 sequence (O09114 25-189 S45A)": "T1 sequence (O09114 25-189 S45A/T67A/S81A) with A43T, A57S", "assay": "surface plasmon resonance", "type": "binding"}, "[4]": {"target": "T4, mouse Δ1–24-L-PGDS (lipocalin type prostaglandin D synthase) (Mus musculus, UniProt O09114, T67A)", "T4 sequence (O09114 25-189 T67A)": "T1 sequence (O09114 25-189 S45A/T67A/S81A) with A21S, A57S", "assay": "surface plasmon resonance", "type": "binding"}, "[5]": {"target": "T5, mouse Δ1–24-L-PGDS (lipocalin type prostaglandin D synthase) (Mus musculus, UniProt O09114)", "T5 sequence (O09114 25-189)": "T1 sequence (O09114 25-189 S45A/T67A/S81A) with A21S, A43T, A57S", "assay": "surface plasmon resonance", "type": "binding"}, "[6]": {"target": "T6, mouse Δ1–24-L-PGDS (lipocalin type prostaglandin D synthase) (Mus musculus, UniProt O09114, H111A)", "T6 sequence (O09114 25-189 H111A)": "T1 sequence (O09114 25-189 S45A/T67A/S81A) with A21S, A43T, A57S, H87A", "assay": "surface plasmon resonance", "type": "binding"}, "[7]": {"target": "T7, mouse Δ1–24-L-PGDS (lipocalin type prostaglandin D synthase) (Mus musculus, UniProt O09114, S81A)", "T7 sequence (O09114 25-189 S81A)": "T1 sequence (O09114 25-189 S45A/T67A/S81A) with A21S, A43T", "assay": "surface plasmon resonance", "type": "binding"}, "[8]": {"target": "T5, mouse Δ1–24-L-PGDS (lipocalin type prostaglandin D synthase)", "assay": "PGDS assay, [[…]-14C]PGH2 to [[…]-14C]PGD2 by TLC", "type": "biochemical"}, "Δ^1–24-C65A + W54A": {"target": "T8, Δ^1–24-C65A + W54A (Mus musculus, UniProt O09114, C65A/W54A)", "T8 sequence (O09114 1-189 W54A/C65A)": "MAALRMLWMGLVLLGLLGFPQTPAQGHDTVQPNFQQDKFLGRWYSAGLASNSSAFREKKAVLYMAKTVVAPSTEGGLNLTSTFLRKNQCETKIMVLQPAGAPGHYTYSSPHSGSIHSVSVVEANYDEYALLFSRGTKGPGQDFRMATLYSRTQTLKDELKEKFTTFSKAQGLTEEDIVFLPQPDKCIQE", "assay": "biochemical"}, "Δ^1–24-C65A + H111A": {"target": "T9, Δ^1–24-C65A + H111A (Mus musculus, UniProt O09114, C65A/H111A)", "T9 sequence (O09114 1-189 C65A/H111A)": "T8 sequence (O09114 1-189 W54A/C65A) with A54W, H111A", "assay": "biochemical"}, "[9]": {"target": "T10, Δ^1–24-L-PGDS + S45A/T67A (Mus musculus, UniProt O09114, S45A/T67A)", "T10 sequence (O09114 1-189 S45A/T67A)": "T8 sequence (O09114 1-189 W54A/C65A) with S45A, A54W, A65C, T67A", "assay": "biochemical"}, "[10]": {"target": "T11, Δ^1–24-L-PGDS + T67A/S81A (Mus musculus, UniProt O09114, S81A/T67A)", "T11 sequence (O09114 1-189 T67A/S81A)": "T8 sequence (O09114 1-189 W54A/C65A) with A54W, A65C, T67A, S81A", "assay": "biochemical"}}, "note": "Numbering of substitutions follows the chain as printed.", "data": [{"smiles": "CCCCC[C@H](O)/C=C/[C@H]1[C@@H]2CO[C@@H](C2)[C@@H]1C/C=C\\CCCC(=O)O", "note": "[U-44069]", "values": [{"measurement": "Kd", "setting": "[1]", "value": "12.9 ± 2.4", "unit": "µM"}, {"measurement": "Kd", "setting": "[2]", "value": "20.6 ± 1.4", "unit": "µM"}, {"measurement": "Kd", "setting": "[3]", "value": "15.2 ± 2.4", "unit": "µM"}, {"measurement": "Kd", "setting": "[4]", "value": "12.3 ± 3", "unit": "µM"}, {"measurement": "Kd", "setting": "[5]", "value": "17.5 ± 1.2", "unit": "µM"}, {"measurement": "Kd", "setting": "[6]", "value": "20.6 ± 2.3", "unit": "µM"}, {"measurement": "Kd", "setting": "[7]", "value": "14.6 ± 2.4", "unit": "µM"}, {"measurement": "Ki", "setting": "[8]", "value": 30, "unit": "µM"}, {"measurement": "Kd", "setting": "Δ^1–24-C65A + W54A", "value": "49.2 ± 3.7", "unit": "µM"}, {"measurement": "Kd", "setting": "Δ^1–24-C65A + H111A", "value": "38.1 ± 2.4", "unit": "µM"}, {"measurement": "Kd", "setting": "[9]", "value": "7.2 ± 1.6", "unit": "µM"}, {"measurement": "Kd", "setting": "[10]", "value": "13.5 ± 2.3", "unit": "µM"}]}, {"smiles": "CCCCC[C@H](O)/C=C/[C@@H]1[C@@H](C/C=C\\CCCC(=O)O)[C@H]2CO[C@@H]1C2", "note": "[U-46619]", "values": [{"measurement": "Kd", "setting": "[1]", "value": "22 ± 2", "unit": "µM"}, {"measurement": "Kd", "setting": "[2]", "value": "48.5 ± 4.4", "unit": "µM"}, {"measurement": "Kd", "setting": "[3]", "value": "16.2 ± 1.4", "unit": "µM"}, {"measurement": "Kd", "setting": "[4]", "value": "26.9 ± 5.3", "unit": "µM"}, {"measurement": "Kd", "setting": "[5]", "value": "22.8 ± 1.6", "unit": "µM"}, {"measurement": "Kd", "setting": "[6]", "value": "20.3 ± 1.3", "unit": "µM"}, {"measurement": "Kd", "setting": "[7]", "value": "17 ± 1.7", "unit": "µM"}, {"measurement": "Ki", "setting": "[8]", "value": 36, "unit": "µM"}, {"measurement": "Kd", "setting": "Δ^1–24-C65A + W54A", "value": "42.4 ± 3.4", "unit": "µM"}, {"measurement": "Kd", "setting": "Δ^1–24-C65A + H111A", "value": "37.2 ± 3.5", "unit": "µM"}, {"measurement": "Kd", "setting": "[9]", "value": "19.1 ± 2.5", "unit": "µM"}, {"measurement": "Kd", "setting": "[10]", "value": "19.6 ± 2.3", "unit": "µM"}]}]}
